Test results published in ChEMBL document CHEMBL1687703, “Modification at the Lipophilic Domain of RXR Agonists Differentially Influences Activation of RXR Heterodimers” (ACS Med Chem Lett, 2010).
The source made the active and inactive calls. No cut-off for these calls is given here.

Experiments:
[1] = target: T1, Retinoic acid receptor RXR-alpha (Homo sapiens, UniProt P19793); experiment: Agonist activity at RXRalpha transfected in […] COS1 cells after 18 hrs by luciferase reporter gene transactivation assay; assay type: functional, cell-based, COS-1
T1 sequence (P19793 whole entry): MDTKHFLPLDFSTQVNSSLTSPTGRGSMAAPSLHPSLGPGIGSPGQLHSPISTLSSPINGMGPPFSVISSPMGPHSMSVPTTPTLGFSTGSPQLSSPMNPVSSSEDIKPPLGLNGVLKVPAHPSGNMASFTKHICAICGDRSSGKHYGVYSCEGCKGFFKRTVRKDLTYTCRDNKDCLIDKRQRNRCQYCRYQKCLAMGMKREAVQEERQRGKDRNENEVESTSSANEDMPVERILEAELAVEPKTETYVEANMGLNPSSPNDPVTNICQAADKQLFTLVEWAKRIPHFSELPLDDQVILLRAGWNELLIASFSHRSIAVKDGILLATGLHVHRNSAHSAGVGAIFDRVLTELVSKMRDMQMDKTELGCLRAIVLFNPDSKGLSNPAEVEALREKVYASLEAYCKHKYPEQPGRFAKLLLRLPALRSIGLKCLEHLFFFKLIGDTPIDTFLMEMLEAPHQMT

[2] = target: T2, Oxysterols receptor LXR-alpha (Homo sapiens) (UniProt Q13133); experiment: Agonist activity at LXRalpha transfected in […] COS1 cells after 18 hrs by luciferase reporter gene transactivation assay; assay type: functional, cell-based; details: COS-1
T2 sequence (whole entry): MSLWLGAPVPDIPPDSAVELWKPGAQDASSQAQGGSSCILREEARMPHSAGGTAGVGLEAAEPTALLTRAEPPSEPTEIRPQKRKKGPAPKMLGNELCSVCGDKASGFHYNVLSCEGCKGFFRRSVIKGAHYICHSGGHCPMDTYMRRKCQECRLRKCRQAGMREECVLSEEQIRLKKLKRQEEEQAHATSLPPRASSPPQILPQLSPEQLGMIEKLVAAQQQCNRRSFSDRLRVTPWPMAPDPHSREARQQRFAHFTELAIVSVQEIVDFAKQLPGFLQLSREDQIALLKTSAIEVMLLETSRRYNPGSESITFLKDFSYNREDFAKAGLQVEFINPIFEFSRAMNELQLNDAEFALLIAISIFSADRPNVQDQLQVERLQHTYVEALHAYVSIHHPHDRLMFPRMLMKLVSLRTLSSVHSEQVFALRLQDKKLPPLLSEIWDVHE

[3] = target: Retinoic acid receptor RXR-alpha/oxysterols receptor LXR-alpha (Homo sapiens) (UniProt P19793+Q13133); experiment: Agonist activity at LXRalpha/RXRalpha transfected in […] COS1 cells at 10^-7 to 10^-6 M after 18 hrs by luciferase reporter gene transactivation assay; assay type: functional, cell-based; details: COS-1

Compound	EC50 [1] [nM]	Activity [2]	Activity [3]
CCN(c1ccc(C(C)C)c(OCC(C)C)c1)c1ccc(C(=O)O)cn1		Active	
CCN(c1ccc(C(C)C)c(OCCCc2ccccc2)c1)c1ccc(C(=O)O)cn1	820		
C=C(C)COc1cc(N(CC)c2ccc(C(=O)O)cn2)ccc1C(C)C	110		
CCN(c1ccc(C(C)C)c(OCC=C(C)C)c1)c1ccc(C(=O)O)cn1	160		
CCN(c1ccc(C(C)C)c(OCc2ccccc2)c1)c1ccc(C(=O)O)cn1	160		Active
CCN(c1ccc(C(C)C)c(OC(C)C)c1)c1ccc(C(=O)O)cn1	66		

More lines, now with the values ahead:

EC50 [1] [nM]	Activity [2]	Activity [3]	Compound
280			CCCCCCOc1cc(N(CC)c2ccc(C(=O)O)cn2)ccc1C(C)C
160			CCN(c1ccc(C(C)C)c(OCC(F)(F)F)c1)c1ccc(C(=O)O)cn1
180			CCCCOc1cc(N(CC)c2ccc(C(=O)O)cn2)ccc1C(C)C
	Active		CCN(c1ccc2c(c1)C(C)(C)CCC2(C)C)c1ccc(C(=O)O)cn1
290		Active	CCN(c1ccc(C(C)C)c(OCC2CC2)c1)c1ccc(C(=O)O)cn1
450			CCCOc1cc(N(CC)c2ccc(C(=O)O)cn2)ccc1C(C)C
330			CCN(c1ccc(C(C)C)c(OCCc2ccccc2)c1)c1ccc(C(=O)O)cn1
160		Active	CCCCCOc1cc(N(CC)c2ccc(C(=O)O)cn2)ccc1C(C)C
